According to PubChem BioAssay (NCI):
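Five concentrations, 48 hours, 96-well plates. Definition used: TGI = concentration required for complete inhibition of growth.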

Columns and labels:
Assay in all cases: DTP human tumour cell line panel, 48 h
[1] = test system: OVCAR-3 ovarian
[2] = test system: MOLT-4 leukemia
[3] = test system: UACC-257 melanoma
[4] = test system: UACC-62 melanoma
[5] = test system: SK-MEL-28 melanoma
[6] = test system: A549 NSCLC
[7] = test system: SF-268 CNS
[8] = test system: NCI-H460 lung
[9] = test system: SK-MEL-5 melanoma
[10] = test system: K-562 leukemia
[11] = test system: OVCAR-8 ovarian
[12] = test system: M14 melanoma
[13] = test system: MCF7 breast
[14] = test system: KM12 colon
[15] = test system: SNB-75 CNS
[16] = test system: HOP-92 NSCLC
[17] = test system: HT29 colon
[18] = test system: OVCAR-4 ovarian
[19] = test system: COLO 205 colon
[20] = test system: HL-60(TB) leukemia
[21] = test system: HCT-15 colon
[22] = test system: RXF 393 renal
[23] = test system: OVCAR-5 ovarian
[24] = test system: EKVX NSCLC
[25] = test system: SN12C renal
[26] = test system: T-47D breast
[27] = test system: MDA-MB-435
[28] = test system: SK-OV-3 ovarian
[29] = test system: HS 578T breast
[30] = test system: CCRF-CEM leukemia
[31] = test system: UO-31 renal
[32] = test system: TK-10 renal
[33] = test system: NCI-H23 lung
[34] = test system: U251 CNS
[35] = test system: A498 renal
[36] = test system: SW-620 colon
[37] = test system: NCI/ADR-RES ovarian
[38] = test system: NCI-H522 lung
[39] = test system: MDA-MB-231 breast
[40] = test system: LOX IMVI melanoma
[41] = test system: MDA-N
[42] = test system: IGROV1 ovarian
[43] = test system: ACHN renal
[44] = test system: HCT-116 colon
[45] = test system: 786-0 renal
[46] = test system: SF-539 CNS
[47] = test system: HOP-62 NSCLC
[48] = test system: CAKI-1 renal
[49] = test system: BT-549 breast
[50] = test system: MALME-3M melanoma
[51] = test system: SK-MEL-2 melanoma
[52] = test system: NCI-H226 lung
[53] = test system: SR leukemia
[54] = test system: DU-145 prostate
[55] = test system: SF-295 CNS
[56] = test system: RPMI-8226 leukemia
[57] = test system: HCC-2998 colon
[58] = test system: SNB-19 CNS
[59] = test system: PC-3 prostate

SMILES: Brc1sc(Br)c2c1[C@H](Br)C[C@@H]2Br
- TGI [1]: > 100 µM
- TGI [2]: 95.5 µM
- TGI [3]: > 100 µM
- TGI [4]: 88 µM
- TGI [5]: > 100 µM
- TGI [6]: > 100 µM
- TGI [7]: 53.4 µM
- TGI [8]: > 100 µM
- TGI [9]: > 100 µM
- TGI [10]: > 100 µM
- TGI [11]: 57.2 µM
- TGI [12]: > 100 µM
- TGI [13]: 98.5 µM
- TGI [14]: > 100 µM
- TGI [15]: 85.3 µM
- TGI [16]: 61.5 µM
- TGI [17]: > 100 µM
- TGI [18]: 44.9 µM
- TGI [19]: > 100 µM
- TGI [20]: 75.2 µM
- TGI [21]: > 100 µM
- TGI [22]: 10.4 µM
- TGI [23]: > 100 µM
- TGI [24]: > 100 µM
- TGI [25]: > 100 µM
- TGI [26]: > 100 µM
- TGI [27]: > 100 µM
- TGI [28]: > 100 µM
- TGI [29]: 77.1 µM
- TGI [30]: > 100 µM
- TGI [31]: 45.8 µM
- TGI [32]: > 100 µM
- TGI [33]: 51.1 µM
- TGI [34]: > 100 µM
- TGI [35]: > 100 µM
- TGI [36]: > 100 µM
- TGI [37]: 63.9 µM
- TGI [38]: 34.2 µM
- TGI [39]: > 100 µM
- TGI [40]: 43.8 µM
- TGI [41]: > 100 µM
- TGI [42]: > 100 µM
- TGI [43]: 97.9 µM
- TGI [44]: > 100 µM
- TGI [45]: > 100 µM
- TGI [46]: 44.5 µM
- TGI [47]: > 100 µM
- TGI [48]: > 100 µM
- TGI [49]: 79 µM
- TGI [50]: 63.2 µM
- TGI [51]: 56 µM
- TGI [52]: 59.2 µM
- TGI [53]: 97.7 µM
- TGI [54]: 61.2 µM

SMILES: CCCCCCCCNC(=O)C1=C(C)NC(C)=C(C(=O)NCCCCCCCC)C1
- TGI [1]: > 100 µM
- TGI [2]: > 100 µM
- TGI [3]: > 100 µM
- TGI [4]: > 100 µM
- TGI [6]: > 100 µM
- TGI [7]: > 100 µM
- TGI [8]: > 100 µM
- TGI [9]: > 100 µM
- TGI [10]: > 100 µM
- TGI [11]: > 100 µM
- TGI [12]: > 100 µM
- TGI [13]: > 100 µM
- TGI [14]: > 100 µM
- TGI [15]: > 100 µM
- TGI [16]: > 100 µM
- TGI [17]: > 100 µM
- TGI [18]: > 100 µM
- TGI [55]: > 100 µM
- TGI [19]: > 100 µM
- TGI [20]: > 100 µM
- TGI [21]: > 100 µM
- TGI [56]: > 100 µM
- TGI [22]: > 100 µM
- TGI [23]: > 100 µM
- TGI [24]: > 100 µM
- TGI [25]: > 100 µM
- TGI [26]: > 100 µM
- TGI [27]: > 100 µM
- TGI [28]: > 100 µM
- TGI [29]: > 100 µM
- TGI [57]: > 100 µM
- TGI [30]: > 100 µM
- TGI [31]: > 100 µM
- TGI [32]: > 100 µM
- TGI [33]: > 100 µM
- TGI [34]: > 100 µM
- TGI [36]: > 100 µM
- TGI [37]: > 100 µM
- TGI [38]: > 100 µM
- TGI [39]: > 100 µM
- TGI [40]: > 100 µM
- TGI [41]: > 100 µM
- TGI [42]: > 100 µM
- TGI [43]: > 100 µM
- TGI [58]: > 100 µM
- TGI [44]: > 100 µM
- TGI [45]: > 100 µM
- TGI [46]: > 100 µM
- TGI [47]: > 100 µM
- TGI [48]: > 100 µM
- TGI [49]: > 100 µM
- TGI [59]: > 100 µM
- TGI [51]: > 100 µM
- TGI [52]: > 100 µM
- TGI [54]: > 100 µM

SMILES: COc1ccc(N2C(=O)C3c4[nH]c5ccc(OC)cc5c4C4CCC(C(C)C)CC4C3C2=O)cc1 (stereo not given)
- TGI [1]: > 100 µM
- TGI [2]: > 93.5 µM
- TGI [3]: > 100 µM
- TGI [4]: > 31.6 µM
- TGI [5]: > 100 µM
- TGI [6]: > 100 µM
- TGI [7]: > 74.5 µM
- TGI [8]: > 100 µM
- TGI [9]: > 100 µM
- TGI [10]: > 31.6 µM
- TGI [11]: > 100 µM
- TGI [12]: > 100 µM
- TGI [13]: > 100 µM
- TGI [14]: > 100 µM
- TGI [15]: > 65.5 µM
- TGI [16]: > 100 µM
- TGI [17]: > 100 µM
- TGI [18]: > 100 µM
- TGI [55]: > 100 µM
- TGI [19]: > 100 µM
- TGI [20]: > 100 µM
- TGI [21]: > 100 µM
- TGI [56]: > 100 µM
- TGI [22]: > 100 µM
- TGI [23]: > 100 µM
- TGI [24]: > 100 µM
- TGI [25]: > 100 µM
- TGI [26]: > 100 µM
- TGI [27]: > 100 µM
- TGI [28]: > 100 µM
- TGI [29]: > 84.4 µM
- TGI [57]: > 100 µM
- TGI [30]: > 30.3 µM
- TGI [31]: > 100 µM
- TGI [32]: > 100 µM
- TGI [33]: > 100 µM
- TGI [34]: > 100 µM
- TGI [35]: > 92.5 µM
- TGI [36]: > 100 µM
- TGI [37]: > 100 µM
- TGI [38]: > 100 µM
- TGI [39]: > 100 µM
- TGI [40]: > 100 µM
- TGI [41]: > 100 µM
- TGI [42]: > 100 µM
- TGI [43]: > 100 µM
- TGI [58]: 99.4 µM
- TGI [44]: > 100 µM
- TGI [45]: > 55.2 µM
- TGI [47]: 54.8 µM
- TGI [48]: > 100 µM
- TGI [49]: > 100 µM
- TGI [59]: > 100 µM
- TGI [51]: > 100 µM
- TGI [52]: > 100 µM
- TGI [54]: > 100 µM
